Laboratory results as given in patent publication US20240216354A1, “IMMUNOMODULATORY IMIDE DRUGS AS ZETA-CHAIN-ASSOCIATED PROTEIN KINASE 70 (ZAP70) AGONISTS AND USES THEREOF” (Dana-Farber Cancer Institute, Inc., priority 2019, published 2024).

Experiments:
Zap-70 [1] = molecular target: T1, Zap-70 (Homo sapiens, UniProt P43403); assay: Saturation-transfer difference (STD) NMR binding to recombinant Zap-70; set-up: purchased Origene, Rockville, MD; conditions: Pom 320 μM, Len 2.56 mM, ATP 2.56 mM, Zap-70 approximately 2 μM, deuterated PBS
T1 sequence (P43403 1-619): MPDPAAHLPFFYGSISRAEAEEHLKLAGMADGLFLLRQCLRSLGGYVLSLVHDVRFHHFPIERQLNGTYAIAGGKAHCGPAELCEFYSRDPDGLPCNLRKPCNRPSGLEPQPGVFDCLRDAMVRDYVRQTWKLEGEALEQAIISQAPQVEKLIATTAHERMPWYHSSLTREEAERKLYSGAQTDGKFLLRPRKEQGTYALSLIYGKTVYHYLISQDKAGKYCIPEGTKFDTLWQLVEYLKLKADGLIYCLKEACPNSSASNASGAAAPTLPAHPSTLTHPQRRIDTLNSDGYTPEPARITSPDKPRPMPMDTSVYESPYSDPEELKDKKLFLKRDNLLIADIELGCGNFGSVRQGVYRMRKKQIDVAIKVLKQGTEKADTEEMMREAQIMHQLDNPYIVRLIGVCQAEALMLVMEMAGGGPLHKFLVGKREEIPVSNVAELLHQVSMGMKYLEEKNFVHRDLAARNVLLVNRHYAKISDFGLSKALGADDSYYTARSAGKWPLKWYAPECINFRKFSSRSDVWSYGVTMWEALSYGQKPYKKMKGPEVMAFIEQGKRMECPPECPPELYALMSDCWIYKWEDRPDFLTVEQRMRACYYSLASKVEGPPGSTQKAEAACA
Experimental: (A) Jurkat cells were transfected with scrambled (Sc) siRNA or Zap-70 siRNA. Whole cell lysates were subjected to immunoblotting using indicated Abs. (B) Jurkat cells were treated with lenalidomide ([…]) or pomalidomide (1 and 3 μM) for 4 h and 8 h. Whole cell lysates were subjected to p-Zap ELISA assay. (C) Jurkat whole cell lysates were incubated with pomalidomide-beads in the presence or absence of competitor (1 mM free pomalidomide) for 1 h. After elution, samples were subjected to immunoblotting using anti-Zap-70 Ab. (D) Saturation-transfer difference resulting from the binding of pomalidomide to Zap-70. Pomalidomide is at 320 μM and Zap-70 is approximately 2 μM in deuterated PBS solution. […] (E) Saturation-transfer difference resulting from the binding of pomalidomide to Zap-70 in the presence of 2.56 mMATP. Pomalidomide is at 320 μM and Zap-70 is approximately 2 μM in deuterated PBS solution. […] Note that both ATP and pomalidomide show binding the Zap-70. (F) Non-cell based Zap-70 kinase assay was carried out, according to manufacturer's protocol.
(A) Saturation-transfer difference resulting from the binding of lenalidomide to Zap-70, with lenalidomide (2.56 mM) and Zap-70 (2 μM) in deuterated PBS solution. […] (B) Saturation-transfer difference resulting from the binding of lenalidomide to Zap70 in the presence of 2.56 mM ATP, with lenalidomide (2.56 mM) and Zap-70 (2 μM) in deuterated PBS solution.
Commercial recombinant Zap-70 (Origene, Rockville, MD) was prepared by gel filtration buffer exchange into deuterated phosphate-buffered saline (PBS), which removed any components of the protein storage buffer, including glycerol. Len and Pom were made as d6-DMSO stock solutions and frozen in aliquots prior to use. ATP was stored frozen in aliquots at −20° C. in deuterated PBS. NMR samples were prepared in 5 mm SampleJet tubes to a final volume of 500 μl by adding 5-20 μl of the appropriate IMiD stock solution to the buffer-exchanged protein. The final concentration of protein in the NMR samples was approximately 2 μM. […]

Zap-70 [2] = molecular target: T1, Zap-70; assay: Immunoblotting of p-Zap-70 and p-LAT in primary T-cells from healthy volunteer; assay type: cell-based; set-up: endogenous in cells; host or cells: primary PBMCs, primary T cells and primary NK cells from healthy volunteers; conditions: pomalidomide 0.25-1 μM, 16 h
Experimental: (§1) (A) PBMCs were cultured with pomalidomide (“Pom”) (0.01-1 μM) for 16 h. […] (B) PBMCs were cultured with pomalidomide (0.1 and 1 μM) for the indicated time periods. (C) PBMCs were cultured with lenalidomide (“Len”) (1 μM) for 16 h. (D) Primary T-cells from healthy volunteer were cultured with pomalidomide (0.25-1 μM) for 16 h. (E) Jurkat cells were cultured with pomalidomide (0.5 and 1 μM) for 16 h. Whole cell lysates were subjected to immunoblotting (A-E) using indicated Abs. (F) Jurkat cells were cultured with pomalidomide (0.01-1 μM) or lenalidomide (0.01-1 μM) for 72 h. Cell growth was assessed by MTT assay.

Zap-70 [3] = molecular target: T1, Zap-70; assay: Immunoblotting of p-Zap-70, p-LAT and p-ERK in PBMCs; assay type: cell-based; set-up: endogenous in cells; host or cells: primary PBMCs, primary T cells and primary NK cells from healthy volunteers
Experimental: as §1
To characterize the effect of IMiDs on Zap-70 function in immune effector cells, pomalidomide triggered phosphorylation of Zap-70 was evaluated along with its known downstream target linker of activated T-cells (LAT) in PBMCs from healthy volunteers. […] Image J densitometric analysis confirmed 42% increased p-Zap-70 after pomalidomide (1 μM) treatment (FIG. 1A, lower panel). The increased p-Zap-70, p-LAT, as well as downstream p-ERK in PBMCs triggered by pomalidomide is also time-dependent (FIG. 1B). […] Since Zap-70 is a mediator of T-cell receptor signaling, whether IMiDs triggered p-Zap-70 in T cells from healthy volunteers was studied.

direct binding to Zap-70 (STD NMR) (Zap-70 [1]): directly binds to Zap-70
increased p-Zap-70, Image J densitometric analysis (Zap-70 [3]; pomalidomide 1 μM, 16 h): 42%
increased p-Zap-70, p-LAT and downstream p-ERK over time (Zap-70 [3]; pomalidomide 0.1 and 1 μM, indicated time periods): time-dependent
Compound: Nc1cccc2c1C(=O)N(C1CCC(=O)NC1=O)C2=O (stereo not shown) [pomalidomide]
p-LAT (immunoblotting) (Zap-70 [2]): induced p-Zap-70 and p-LAT in primary T cells
p-Zap-70 (immunoblotting) (Zap-70 [2]): induced p-Zap-70 and p-LAT in primary T cells
phosphorylation of LAT (immunoblotting) (Zap-70 [3]; 16 h, Pom 0.01-1 μM, Len 1 μM): induced phosphorylation of both Zap-70 and LAT in PBMCs in a dose-dependent fashion
phosphorylation of Zap-70 (immunoblotting) (Zap-70 [3]; 16 h, Pom 0.01-1 μM, Len 1 μM): induced phosphorylation of both Zap-70 and LAT in PBMCs in a dose-dependent fashion
